Like-named read-outs stand apart in the source and are kept apart here.
How the values were obtained:
[1] = system: P. falciparum late stage (stages IV-V) gametocytes; parameters: method as in Almela et al 2016; conditions: TCAMS screen comparison; ref Almela et al 2016; read-out: Pf GCT ATP IC50; cited from earlier work
[2] = system: P. falciparum late stage (stages IV-V) gametocytes; assay: P. falciparum late stage gametocyte ATP depletion assay (Pf GC-ATP); conditions: 1: YES; 0: NO
[3] = system: HepG2 cells; conditions: cited from earlier work
[4] = system: HepG2 cells; assay: HepG2 cytotoxicity assay; conditions: HepG2 cytotoxicity unified across the three screens
How it was run: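 Here viability after a 48 h compound incubation (37°C, humidified 5% CO2) is measured by fluorescence and expressed as percent inhibition, with doxorubicin at 50 μM and DMSO as the bounding controls.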

[5] = system: P. falciparum female gametocytes; parameters: method as in Miguel-Blanco et al 2017; conditions: TCAMS screen comparison; ref Miguel-Blanco et al 2017; read-out: Pf FGAA IC50; cited from earlier work
[6] = system: P. falciparum female gametocytes; assay: P. falciparum female gametogenesis assay (Pf FGAA); conditions: 1: YES; 0: NO
[7] = value reported with the Pf FGAA screen, ref Miguel-Blanco et al 2017
[8] = value reported with the Pf GCT ATP screen, ref Almela et al 2016

Structure (SMILES)	IC50 [1]	Is compound selective in assay? Pf GC-ATP active? [2]	HepG2 cytoxicity [3, 7]	HepG2 cytoxicity [3, 8]	Unified cytotox [4]	IC50 [5]	Is compound selective in assay? Pf FGAA active? [6]
FC(F)(F)c1ccc2[nH]c(-c3ccc(-c4cccc(CNCCN5CCNCC5)c4)cc3)nc2c1.O=C(O)C(F)(F)F [TCMDC-132864]	1080 nM	1 (1: YES)	12.31 µM	17.5 µM	14.90 µM	1710 nM	0 (0: NO)
FC(F)(F)c1ccc2[nH]c(-c3cccc(-c4ccc(CNCCN5CCNCC5)cc4)c3)nc2c1.O=C(O)C(F)(F)F [TCMDC-132872]	860 nM	1 (1: YES)	8.81 µM	12.62 µM	10.72 µM	1790 nM	0 (0: NO)
Fc1ccc2[nH]c(-c3ccc(-c4ccc(CN5CCC(CCN6CCCCC6)CC5)cc4)cc3)nc2c1.O=C(O)C(F)(F)F [TCMDC-133924]	460 nM	1 (1: YES)	3.94 µM	5.3 µM	4.62 µM	1700 nM	0 (0: NO)
Fc1ccc2[nH]c(-c3cccc(-c4ccc(CN5CCC(CCN6CCCCC6)CC5)cc4)c3)nc2c1.O=C(O)C(F)(F)F [TCMDC-133940]	430 nM	1 (1: YES)	4.79 µM	5.2 µM	4.99 µM	1880 nM	0 (0: NO)
FC(F)(F)c1ccc2[nH]c(-c3ccc(-c4cccc(CN5CCC(CCN6CCCCC6)CC5)c4)cc3)nc2c1.O=C(O)C(F)(F)F [TCMDC-133941]	510 nM	0 (0: NO)	4.45 µM	3.4 µM	3.93 µM	1260 nM	0 (0: NO)
Cc1n[nH]c2ccc(-c3ccc4nccc(N5CCC(N)CC5)c4c3)cc12.Cl [TCMDC-134315]	380 nM	1 (1: YES)	6.88 µM	11.66 µM	9.27 µM	2450 nM	0 (0: NO)
CC(C)c1ccc(CN2CCC(CNC(=O)c3cc(-c4cccc(F)c4)cs3)C2)cc1.O=C(O)C(F)(F)F (stereo not drawn) [TCMDC-134437]	450 nM	1 (1: YES)	6.24 µM	5.3 µM	5.77 µM	1370 nM	0 (0: NO)
CC(C)(C)c1ccc(CN2CCC(CNC(=O)c3cc(-c4ccccc4C(F)(F)F)cs3)C2)cc1.O=C(O)C(F)(F)F (stereo not drawn) [TCMDC-134441]	310 nM	1 (1: YES)	9.77 µM	6.4 µM	8.09 µM	690 nM	1 (1: YES)
CC(C)(C)c1ccc(CN2CCC(CNC(=O)c3cc(-c4cccc(C(F)(F)F)c4)cs3)C2)cc1.O=C(O)C(F)(F)F (stereo not drawn) [TCMDC-134442]	420 nM	1 (1: YES)	6.39 µM	4.9 µM	5.65 µM	950 nM	0 (0: NO)
CC(C)(C)c1ccc(CN2CCC(CNC(=O)c3cc(-c4ccccc4F)cs3)C2)cc1.O=C(O)C(F)(F)F (stereo not drawn) [TCMDC-134443]	340 nM	1 (1: YES)	9.30 µM	7.4 µM	8.35 µM	830 nM	1 (1: YES)
CC(C)(C)c1ccc(CN2CCC(CNC(=O)c3cc(-c4ccccc4Cl)cs3)C2)cc1.O=C(O)C(F)(F)F (stereo not drawn) [TCMDC-134445]	690 nM	1 (1: YES)	6.17 µM	8.3 µM	7.23 µM	1010 nM	0 (0: NO)
CC(C)(C)c1ccc(CN2CCC(CNC(=O)c3cc(-c4cccc(Cl)c4)cs3)C2)cc1.O=C(O)C(F)(F)F (stereo not drawn) [TCMDC-134446]	610 nM	1 (1: YES)	7.42 µM	11.3 µM	9.36 µM	990 nM	0 (0: NO)
COc1cccc(-c2csc(C(=O)NCC3CCN(Cc4ccc(C(C)(C)C)cc4)C3)c2)c1.O=C(O)C(F)(F)F (stereo not drawn) [TCMDC-134447]	230 nM	1 (1: YES)	5.78 µM	9.5 µM	7.64 µM	650 nM	1 (1: YES)
COc1cccc(OC)c1CN1CCC(N(C)CCCCCCCCN2CCC(OC(=O)Nc3ccccc3-c3ccccc3)CC2)CC1 [TCMDC-134684]	1040 nM	0 (0: NO)	1.93 µM	3.4 µM	2.66 µM	2260 nM	0 (0: NO)
COc1cccc(OC)c1CN1CCC(N(C)CCCCCCCCCN2CCC(OC(=O)Nc3ccccc3-c3ccccc3)CC2)CC1 [TCMDC-134690]	260 nM	0 (0: NO)	1.91 µM	<1.56 µM	1.91 µM	1310 nM	0 (0: NO)
Fc1ccc(OC2CN(c3nccc(NCc4ccccc4Cl)n3)C2)cc1 [TCMDC-135110]	2510 nM	1 (1: YES)	83.45 µM	>25 µM	83.45 µM	5220 nM	1 (1: YES)
CCn1c(Sc2ccc([N+](=O)[O-])c(C#N)c2)nnc1-c1cccc(Cl)c1 [TCMDC-135234]	3040 nM	0 (0: NO)	18.80 µM	>25 µM	18.80 µM	1340 nM	1 (1: YES)
CCn1c(-c2nonc2N)nc2c(-c3cc4ccccc4s3)ncc(C(=O)N3CCC(N)C3)c21.O=C(O)C(F)(F)F (stereo not drawn) [TCMDC-135281]	350 nM	0 (0: NO)	1.00 µM	3.5 µM	2.25 µM	450 nM	0 (0: NO)
CNCCNc1nccc(N2CCc3ncnc(Nc4ccc(OCc5cccc(F)c5)c(Cl)c4)c3C2)n1 [TCMDC-135478]	670 nM	0 (0: NO)	5.62 µM	7.16 µM	6.39 µM	1670 nM	0 (0: NO)
COc1ccc(-c2cnc3[nH]cc(-c4ccncc4)c3c2)cc1OC [TCMDC-135853]	900 nM	0 (0: NO)	11.79 µM	3.1 µM	7.44 µM	2260 nM	0 (0: NO)
CCn1c(-c2nonc2N)nc2c(-c3cccc(NC(=O)Nc4cccc(Cl)c4)c3)ncc(OCCCN)c21.O=C(O)C(F)(F)F [TCMDC-136193]	2170 nM	1 (1: YES)	80.36 µM	14.5 µM	47.43 µM	1180 nM	1 (1: YES)
Cl.c1ccc2c(C3CCN(CCCCOc4ccc5c(c4)CCN(CC4CC4)CC5)CC3)c[nH]c2c1 [TCMDC-136244]	710 nM	0 (0: NO)	5.15 µM	6.81 µM	5.98 µM	1150 nM	0 (0: NO)
COc1ccc(Nc2nccc(-c3ccc4ccnc(NCCCCN)c4c3)n2)cc1 [TCMDC-136642]	330 nM	1 (1: YES)	14.29 µM	>25 µM	14.29 µM	1510 nM	0 (0: NO)
Cc1cc(OCCN2CCCCC2)ccc1NC(=O)c1cccc2c(=O)n(Cc3ccc(Cl)cc3)cnc12 [TCMDC-136727]	950 nM	0 (0: NO)	4.17 µM	4.73 µM	4.45 µM	1400 nM	0 (0: NO)
